Measured values published in patent US5945438A, “Triazole derivative and pharmaceutical comprising the same as an effective ingredient” (SS Pharmaceutical Co., Ltd., priority 1995, dated 1999).
Values after ≈ are worked out from the molar mass of the structure shown. Where two headings read alike, the source gives them in different places.

Legend:
A. fumigatus IFM 40808 = experiment: In vitro antifungal activity against Aspergillus fumigatus; type: cell-based; conditions: RPMI MEDIUM 1640, pH 7, 3.0×10^4 cells/ml, 35° C.; for MIC: Aspergillus fumigatus, read-out: Minimum inhibitory concentration
Method: In vitro antifungal activity against Aspergillus fumigatus
Incubation was then conducted at 35° C. for 24 hours.

C. albicans ATCC 44859 = experiment: In vitro antifungal activity against Candida albicans; type: cell-based; conditions: C. albicans controlled to a yeast-type (no hyphal growth), Eagle's MEM medium with 10% serum, 2.0×10^4 cells/ml, 37° C.; for MIC: Candida albicans, read-out: Minimum inhibitory concentration
Method: In vitro antifungal activity against Candida albicans
Incubation was then conducted at 37° C. for 20 hours using a CO2 gas incubator.

[1] = IFM40808, 24 h, pH 7, growth of about 75% of hyphae inhibited
[2] = growth of about 75% of hyphae inhibited, 24 hours

SMILES	MIC (A. fumigatus IFM 40808; [1]) [µg/mL]	MIC (C. albicans ATCC 44859; ATCC44859, 20 h) [µg/mL]	Minimum inhibitory concentration (C. albicans ATCC 44859; 20 hours) [µg/mL]	also measured
CSC(F)(F)C(O)(Cn1cncn1)c1ccc(F)cc1F (racemic) [Compound(1a-1), 3,3-difluoro-2-(2',4'-difluorophenyl)-3-methylthio-1-(1H-1,2,4-triazol-1-yl)propan-2-ol]	4 (≈ 12.4 µM)	0.0078 (≈ 0.0243 µM)	–	–
CSC(F)(F)C(O)(Cn1cncn1)c1ccc(Cl)cc1Cl (racemic) [Compound(1a-3), 2-(2',4'-dichlorophenyl)-3,3-difluoro-3-methylthio-1-(1H-1,2,4-triazol-1-yl)propan-2-ol]	2 (≈ 5.65 µM)	0.0039 (≈ 0.011 µM)	–	–
C[S+]([O-])C(F)(F)C(O)(Cn1cncn1)c1ccc(F)cc1F (single isomer, unassigned) [Compound(1b-1B), 3,3-difluoro-2-(2',4'-difluorophenyl)-3-methylsulfinyl-1-(1H-1,2,4-triazol-1-yl)propan-2-ol]	–	–	0.5 (≈ 1.48 µM)	Minimum inhibitory concentration (A. fumigatus IFM 40808; [2]): > 64 µg/mL
CS(=O)(=O)C(F)(F)C(O)(Cn1cncn1)c1ccc(F)cc1F (single isomer, unassigned; (+)) [(+)-Compound(1c-1), (+)-3,3-difluoro-2-(2',4'-difluorophenyl)-3-methylsulfonyl-1-(1H-1,2,4-triazol-1-yl)propan-2-ol]	–	–	> 1	Minimum inhibitory concentration (A. fumigatus IFM 40808; [2]): > 64 µg/mL
CS(=O)(=O)C(F)(F)C(O)(Cn1cncn1)c1ccc(F)cc1 (single isomer, unassigned; (+)) [(+)-Compound(1c-2), (+)-3,3-difluoro-2-(4'-fluorophenyl)-3-methylsulfonyl-1-(1H-1,2,4-triazol-1-yl)propan-2-ol]	> 64	–	> 1	–
CS(=O)(=O)C(F)(F)C(O)(Cn1cncn1)c1ccc(Cl)cc1Cl (single isomer, unassigned; (+)) [(+)-Compound(1c-3), (+)-2-(2',4'-dichlorophenyl)-3,3-difluoro-3-methylsulfonyl-1-(1H-1,2,4-triazol-1-yl)propan-2-ol]	–	–	> 1	Minimum inhibitory concentration (A. fumigatus IFM 40808; [2]): > 64 µg/mL
CS(=O)(=O)C(F)(F)C(O)(Cn1cncn1)c1ccc(C(F)(F)F)cc1 (single isomer, unassigned; (+)) [(+)-Compound(1c-4), (+)-3,3-difluoro-3-methylsulfonyl-1-(1H-1,2,4-triazol-1-yl)-2-[4'-(trifluoromethyl)phenyl]propan-2-ol]	> 64	–	> 1	–
CS(=O)(=O)C(F)(F)C(O)(Cn1cncn1)c1ccc(F)cc1F (single isomer, unassigned; (-)) [(-)-Compound(1c-1), (-)-3,3-difluoro-2-(2',4'-difluorophenyl)-3-methylsulfonyl-1-(1H-1,2,4-triazol-1-yl)propan-2-ol]	–	–	0.0313 (≈ 0.0886 µM)	Minimum inhibitory concentration (A. fumigatus IFM 40808; [2]): 16 µg/mL (≈ 45.3 µM)
CS(=O)(=O)C(F)(F)C(O)(Cn1cncn1)c1ccc(F)cc1 (single isomer, unassigned; (-)) [(-)-Compound(1c-2), (-)-3,3-difluoro-2-(4'-fluorophenyl)-3-methylsulfonyl-1-(1H-1,2,4-triazol-1-yl)propan-2-ol]	–	–	0.0625 (≈ 0.186 µM)	Minimum inhibitory concentration (A. fumigatus IFM 40808; [2]): 64 µg/mL (≈ 191 µM)
CS(=O)(=O)C(F)(F)C(O)(Cn1cncn1)c1ccc(Cl)cc1Cl (single isomer, unassigned; (-)) [(-)-Compound(1c-3), (-)-2-(2',4'-dichlorophenyl)-3,3-difluoro-3-methylsulfonyl-1-(1H-1,2,4-triazol-1-yl)propan-2-ol]	32 (≈ 82.9 µM)	–	0.0078 (≈ 0.0202 µM)	–
CS(=O)(=O)C(F)(F)C(O)(Cn1cncn1)c1ccc(C(F)(F)F)cc1 (single isomer, unassigned; (-)) [(-)-Compound(1c-4), (-)-3,3-difluoro-3-methylsulfonyl-1-(1H-1,2,4-triazol-1-yl)-2-(4'-(trifluoromethyl)phenyl]propan-2-ol]	–	–	0.0625 (≈ 0.162 µM)	Minimum inhibitory concentration (A. fumigatus IFM 40808; [2]): > 64 µg/mL
CS(=O)(=O)C(F)(F)C(O)(Cn1cncn1)c1ccc(F)cc1F (stereo not drawn) [Compound (1c-1), 3,3-difluoro-2-(2',4'-difluorophenyl)-3-methylsulfonyl-1-(1H-1,2,4-triazol-1-yl)propan-2-ol]	32 (≈ 90.6 µM)	0.0625 (≈ 0.177 µM)	–	–
CSC(F)(F)C(O)(Cn1cncn1)c1ccc(F)cc1 (stereo not drawn) [Compound(1a-2), 3,3-difluoro-2-(4'-fluorophenyl)-3-methylthio-1-(1H-1,2,4-triazol-1-yl)propan-2-ol]	16 (≈ 52.8 µM)	0.0625 (≈ 0.206 µM)	–	–
OC(Cn1cncn1)(Cn1cncn1)c1ccc(F)cc1F [Fluconazole, reference compound]	–	–	–	MIC (A. fumigatus IFM 40808; IFM40808, growth of about 75% of hyphae inhibited, 24 hours): > 64 µg/mL; MIC (C. albicans ATCC 44859; ATCC44859, 20 hours): 0.25 µg/mL (≈ 0.816 µM)

Second part, led by results:

MIC (A. fumigatus IFM 40808; [1]) [µg/mL]	MIC (C. albicans ATCC 44859; ATCC44859, 20 h) [µg/mL]	SMILES	Minimum inhibitory concentration (C. albicans ATCC 44859; 20 hours) [µg/mL]	also measured
> 64	0.25 (≈ 0.746 µM)	CS(=O)(=O)C(F)(F)C(O)(Cn1cncn1)c1ccc(F)cc1 (racemic) [Compound(1c-2), 3,3-difluoro-2-(4'-fluorophenyl)-3-methylsulfonyl-1-(1H-1,2,4-triazol-1-yl)propan-2-ol]	–	–
> 64	0.125 (≈ 0.324 µM)	CS(=O)(=O)C(F)(F)C(O)(Cn1cncn1)c1ccc(C(F)(F)F)cc1 (racemic) [Compound(1c-4), 3,3-difluoro-3-methylsulfonyl-1-(1H-1,2,4-triazol-1-yl)-2-[4'-(trifluoromethyl)phenyl]propan-2-ol]	–	–
64 (≈ 190 µM)	–	C[S+]([O-])C(F)(F)C(O)(Cn1cncn1)c1ccc(F)cc1F (single isomer, unassigned) [Compound(1b-1A), 3,3-difluoro-2-(2',4'-difluorophenyl)-3-methylsulfinyl-1-(1H-1,2,4-triazol-1-yl)propan-2-ol]	0.0625 (≈ 0.185 µM)	–
16 (≈ 45.3 µM)	0.0156 (≈ 0.0442 µM)	CSC(F)(F)C(O)(Cn1cncn1)c1ccc(C(F)(F)F)cc1 (stereo not drawn) [Compound(1a-4), 3,3-difluoro-3-methylthio-1-(1H-1,2,4-triazol-1-yl)-2-[4'-(trifluoromethyl)phenyl]propan-2-ol]	–	–
16 (≈ 56.1 µM)	0.125 (≈ 0.438 µM)	CSC(F)(F)C(O)(Cn1cncn1)c1ccccc1 (stereo not drawn) [Compound(1a-5), 3,3-difluoro-3-methylthio-2-phenyl-1-(1H-1,2,4-triazol-1-yl)propan-2-ol]	–	–
32 (≈ 82.9 µM)	0.0313 (≈ 0.081 µM)	CS(=O)(=O)C(F)(F)C(O)(Cn1cncn1)c1ccc(Cl)cc1Cl (stereo not drawn) [Compound(1c-3), 2-(2',4'-dichlorophenyl)-3,3-difluoro-3-methylsulfonyl-1-(1H-1,2,4-triazol-1-yl)propan-2-ol]	–	–
> 64	0.5 (≈ 1.58 µM)	CS(=O)(=O)C(F)(F)C(O)(Cn1cncn1)c1ccccc1 (stereo not drawn) [Compound(1c-5), 3,3-difluoro-3-methylsulfonyl-2-phenyl-1-(1H-1,2,4-triazol-1-yl)propan-2-ol]	–	–
